For this assay, the target named is NR2B-subtype NMDA receptors (Rattus norvegicus (Rat), UniProt P35439+Q00960). The experiment in a line: Radioligand binding assay (3H Ro 25-6981 competition, forebrain membranes). Particulars: 3H Ro 25-6981 (4 nM). Here is the method:
Radioligand Binding Assay. […] Buchy D; Klingelschmidt A; Messer J; Bleuel Z; Kemp J A; Richards J G. […] Thawed brains were homogenized using a Dounce homogenizer and centrifuged at 48000×g for 20 min. The pellet was resuspended in cold buffer and homogenized again using a Dounce homogenizer. […] After incubation for 1 hr at room temperature, the membrane bound radioligand was harvested on to GF/B filter plates (treated with 0.5% PEI for 1 hr at room temperature). The filter plates were dried at 50° C. for 20 mins, incubated with microscint 20 for 10 minutes and finally, the counts were read on TopCount (Perkin Elmer). […] CPM values were converted to % inhibition and the concentration response curves were plotted using custom made software. Each experiment was repeated at least twice to obtain the final binding Ki values for experimental compounds.

Each structure is given as a SMILES string. pKi: −log10 of the molar value. Where two headings read alike, the source gives them in different places.

As usually defined, the pKi is the Ki on a negative log10 scale, so that one unit is a factor of ten.

Sequence of NR2B-subtype NMDA receptors (Q00960 27-1482, other chains not shown): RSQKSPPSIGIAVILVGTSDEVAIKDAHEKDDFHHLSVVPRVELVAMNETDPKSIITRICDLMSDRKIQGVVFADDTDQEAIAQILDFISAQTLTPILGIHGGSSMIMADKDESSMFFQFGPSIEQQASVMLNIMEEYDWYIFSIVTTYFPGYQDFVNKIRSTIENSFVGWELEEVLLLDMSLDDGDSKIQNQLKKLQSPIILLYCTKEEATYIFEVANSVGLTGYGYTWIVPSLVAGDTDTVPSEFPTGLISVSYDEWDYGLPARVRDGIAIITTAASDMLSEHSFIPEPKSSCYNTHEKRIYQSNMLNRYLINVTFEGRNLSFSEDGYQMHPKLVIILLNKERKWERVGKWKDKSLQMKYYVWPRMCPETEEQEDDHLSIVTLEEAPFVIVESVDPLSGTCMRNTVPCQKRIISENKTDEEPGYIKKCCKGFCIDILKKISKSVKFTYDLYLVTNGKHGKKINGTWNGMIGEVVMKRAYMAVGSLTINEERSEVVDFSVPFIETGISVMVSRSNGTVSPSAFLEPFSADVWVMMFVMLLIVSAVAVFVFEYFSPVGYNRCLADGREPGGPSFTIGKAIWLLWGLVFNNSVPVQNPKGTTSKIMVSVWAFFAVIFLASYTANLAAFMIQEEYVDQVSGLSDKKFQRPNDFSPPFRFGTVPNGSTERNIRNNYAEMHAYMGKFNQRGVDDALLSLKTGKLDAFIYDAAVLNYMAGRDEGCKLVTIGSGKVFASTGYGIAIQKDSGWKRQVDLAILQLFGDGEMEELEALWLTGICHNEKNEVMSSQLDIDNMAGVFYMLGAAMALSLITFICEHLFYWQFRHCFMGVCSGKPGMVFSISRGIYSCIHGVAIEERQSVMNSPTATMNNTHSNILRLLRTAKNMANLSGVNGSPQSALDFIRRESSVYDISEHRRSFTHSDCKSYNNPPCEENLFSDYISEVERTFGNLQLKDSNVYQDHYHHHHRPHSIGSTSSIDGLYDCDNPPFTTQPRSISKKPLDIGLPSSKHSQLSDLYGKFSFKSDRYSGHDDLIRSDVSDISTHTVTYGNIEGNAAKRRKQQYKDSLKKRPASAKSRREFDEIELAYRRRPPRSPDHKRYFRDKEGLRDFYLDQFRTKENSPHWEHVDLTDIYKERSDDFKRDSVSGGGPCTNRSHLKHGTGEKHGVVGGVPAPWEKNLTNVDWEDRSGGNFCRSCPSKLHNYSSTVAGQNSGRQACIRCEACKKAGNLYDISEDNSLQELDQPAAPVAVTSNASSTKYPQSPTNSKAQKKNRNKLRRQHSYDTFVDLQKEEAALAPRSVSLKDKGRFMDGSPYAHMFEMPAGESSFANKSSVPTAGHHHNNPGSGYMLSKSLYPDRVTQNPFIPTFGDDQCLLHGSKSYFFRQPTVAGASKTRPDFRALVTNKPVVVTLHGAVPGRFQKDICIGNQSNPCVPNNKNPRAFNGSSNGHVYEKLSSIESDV

For `O=C1C(N2CCC(c3ccc(O)cc3)CC2)CCN1Cc1ccc(Cl)cc1` (racemic) [Example 17, 1-(4-Chlorobenzyl)-3-(4-(4-hydroxyphenyl)piperidin-1-yl)pyrrolidin-2-one], where the note is “read-out: NR2B Binding Ki”, the pKi is 8.80.

`O=C1C(N2CCC(c3ccc(O)cc3)C(F)(F)C2)CCN1Cc1ccc(C(F)(F)F)cc1` (single isomer, unassigned) [Example 53, P-1, 3-(3,3-Difluoro-4-(4-hydroxyphenyl)piperidin-1-yl)-1-(4-(trifluoromethyl)-benzyl)pyrrolidin-2-one]: the pKi (read-out: NR2B Binding Ki) is 5.96.

Take `O=C1[C@H](N2CCC(c3ccc(O)cc3)C(F)(F)C2)CCN1Cc1ccc(F)c(F)c1` (single isomer, unassigned) [Example 108, P-2]: the pKi (read-out: NR2B Binding Ki) is 7.82.

In the case of `O=C1[C@H](N2CC[C@@H](c3ccc(O)c(F)c3)[C@H](F)C2)CCN1Cc1ccc(C(F)F)cc1` [Example 117, P-2, (R)-1-(4-(difluoromethyl)benzyl)-3-((3S,4S)-3-fluoro-4-(3-fluoro-4-hydroxyphenyl)piperidin-1-yl)pyrrolidin-2-one], where the note is “read-out: NR2B Binding Ki”, the negative-log Ki (pKi) is 8.54.

For the compound `O=C1C(N2CCN(c3ccc(O)cc3)CC2)CCN1Cc1ccc(F)cc1` (centres unmarked) [Example 113, 1-(4-fluorobenzyl)-3-(4-(4-hydroxyphenyl)piperazin-1-yl)pyrrolidin-2-one], under “read-out: NR2B Binding Ki”, the pKi is 7.48.

Regarding `O=C1[C@H](N2CC[C@@H](c3ccc(O)cc3)[C@H](F)C2)CCN1Cc1ccc(C(F)F)cc1` [Example 114, P-1, (R)-1-(4-(difluoromethyl)benzyl)-3-((3S,4S)-3-fluoro-4-(4-hydroxyphenyl)piperidin-1-yl)pyrrolidin-2-one], where the note is “read-out: NR2B Binding Ki”, the pKi is 8.46.

In the case of `O=C1C(N2CCC(c3ccc(O)cc3)C(F)(F)C2)CCN1Cc1ccc(OC(F)F)cc1` (centres unmarked) [Example 105, 3-(3,3-Difluoro-4-(4-hydroxyphenyl)piperidin-1-yl)-1-(4-(difluoromethoxy)benzyl)-pyrrolidin-2-one], the pKi (read-out: NR2B Binding Ki) is 6.74.

Take `O=C1[C@@H](N2CCC(c3ccc(O)cc3)C(F)(F)C2)CCN1Cc1ccccc1` (stereo partly drawn) [Example 102, P-1, (3S)-1-Benzyl-3-(3,3-difluoro-4-(4-hydroxyphenyl)piperidin-1-yl)pyrrolidin-2-one]: the pKi (read-out: NR2B Binding Ki) was 6.13.

In the case of `Cc1ccccc1CN1CCC(N2CC[C@@H](c3ccc(O)cc3)[C@H](F)C2)C1=O` (stereo partly drawn) [Example 59, 3-((3S,4S)-3-Fluoro-4-(4-hydroxyphenyl)piperidin-1-yl)-1-(2-methylbenzyl)pyrrolidin-2-one], the pKi (read-out: NR2B Binding Ki) is 7.09.

Consider `O=C1C(N2CC[C@H](c3ccc(O)cc3)[C@@H](F)C2)CCN1Cc1ccc(Cl)c(Cl)c1` (stereo partly drawn) [Example 86, 1-(3,4-Dichlorobenzyl)-3-((3R,4R)-3-fluoro-4-(4-hydroxyphenyl)-piperidin-1-yl)pyrrolidin-2-one], for which, where the note is “read-out: NR2B Binding Ki”, the pKi was 7.11.

As to `O=C1C(N2CCC(c3ccc(O)cc3)C(O)C2)CCN1Cc1ccc(F)cc1` (single isomer, unassigned) [Example 44, E-2, 1-(4-Fluorobenzyl)-3-(cis-3-hydroxy-4-(4-hydroxyphenyl)piperidin-1-yl)pyrrolidin-2-one], under “listed as 44, E-2, read-out: NR2B Binding Ki”, the pKi is 8.24.

`O=C1C(N2CCC(c3ccc(O)cc3)CC2)CCN1Cc1ccc(OC(F)F)cc1` (centres unmarked) [Example 7, 1-(4-(Difluoromethoxy)benzyl)-3-(4-(4-hydroxyphenyl)piperidin-1-yl)pyrrolidin-2-one]: the pKi (read-out: NR2B Binding Ki) was 7.43.

For `O=C1C(N2CC(c3ccc(O)cc3)C2)CCN1Cc1ccc(F)c(F)c1` (centres unmarked) [Example 10, 1-(3,4-Difluorobenzyl)-3-(3-(4-hydroxyphenyl)azetidin-1-yl)pyrrolidin-2-one], the pKi (read-out: NR2B Binding Ki) was 5.99.

Consider `Cc1ccc(CN2CCCC(N3CCC(c4ccc(O)cc4)CC3)C2=O)cc1F` (centres unmarked) [Example 39, 1′-(3-Fluoro-4-methylbenzyl)-4-(4-hydroxyphenyl)-[1,3′-bipiperidin]-2′-one], for which, for the setting “read-out: NR2B Binding Ki”, the pKi was 6.52.

For `O=C1C(N2CCC(c3ccc(O)cc3)C(F)(F)C2)CCN1c1ccc(OC(F)F)c(Cl)c1` (centres unmarked) [Example 90, 1-(3-Chloro-4-(difluoromethoxy)phenyl)-3-(3,3-difluoro-4-(4-hydroxyphenyl)piperidin-1-yl)pyrrolidin-2-one], where the note is “read-out: NR2B Binding Ki”, the pKi was 7.11.

`Cc1ccc(CN2CC[C@H](N3CC(c4ccc(O)cc4)C3)C2=O)cc1F` [Example 21b, (S)-1-(3-Fluoro-4-methylbenzyl)-3-(3-(4-hydroxyphenyl)azetidin-1-yl)pyrrolidin-2-one]: the pKi (read-out: NR2B Binding Ki) was 6.39.

Turning to `Cc1ccccc1CN1CCC(N2CCC(c3ccc(O)cc3)C(F)(F)C2)C1=O` (centres unmarked) [Example 103, 3-(3,3-Difluoro-4-(4-hydroxyphenyl)piperidin-1-yl)-1-(2-methylbenzyl)pyrrolidin-2-one], the negative logarithm of the Ki (pKi) (read-out: NR2B Binding Ki) was 7.09.

As to `O=C1[C@H](N2CCC(c3ccc(O)cc3)C(F)(F)C2)CCN1Cc1ccc(Cl)cc1` (stereo partly drawn) [Example 106, P-2, (3R)-1-(4-Chlorobenzyl)-3-(3,3-difluoro-4-(4-hydroxyphenyl)piperidin-1-yl)pyrrolidin-2-one], the pKi (read-out: NR2B Binding Ki) was 8.34.

Turning to `O=C1[C@H](N2CC[C@@H](c3ccc(O)cc3)[C@H](F)C2)CCN1Cc1ccc(C(F)(F)F)cc1` [Example 72, (R)-3-((3S,4S)-3-Fluoro-4-(4-hydroxyphenyl)piperidin-1-yl)-1-(4-(trifluoromethyl)benzyl)-pyrrolidin-2-one], the pKi (read-out: NR2B Binding Ki) is 8.22.

As to `O=C1C(N2CC[C@H](c3ccc(O)cc3)[C@@H](F)C2)CCN1c1ccc(OC(F)F)c(Cl)c1` (stereo partly drawn) [Example 79, 1-(3-Chloro-4-(difluoromethoxy)phenyl)-3-((3R,4R)-3-fluoro-4-(4-hydroxyphenyl)-piperidin-1-yl)pyrrolidin-2-one], for the setting “read-out: NR2B Binding Ki”, the pKi was 7.40.

As to `O=C1[C@H](N2CCC(c3ccc(O)cc3)C(F)(F)C2)CCN1Cc1ccc(Cl)cc1` (stereo partly drawn) [Example 95, P-2, (3R)-1-(4-Chlorobenzyl)-3-(3,3-difluoro-4-(4-hydroxyphenyl)piperidin-1-yl)pyrrolidin-2-one], the pKi (read-out: NR2B Binding Ki) was 7.92.

Take `C[C@@H](c1ccc(F)cc1)N1CC[C@H](N2CC[C@H](c3ccc(O)cc3)[C@@H](F)C2)C1=O` [Example 50, P-1, (S)-3-((3R,4R)-3-Fluoro-4-(4-hydroxyphenyl)piperidin-1-yl)-1-((S)-1-(4-fluorophenyl)-ethyl)pyrrolidin-2-one]: the pKi (read-out: NR2B Binding Ki) was at most 5.30.

`O=C1[C@H](N2CC[C@@H](c3ccc(O)cc3)[C@H](F)C2)CCN1Cc1ccc(Cl)cc1` [Example 65, (R)-1-(4-Chlorobenzyl)-3-((3S,4S)-3-fluoro-4-(4-hydroxyphenyl)piperidin-1-yl)pyrrolidin-2-one]: the pKi (read-out: NR2B Binding Ki) is 8.44.

Consider `Cc1ccc(CN2CCCC(N3CCC(c4ccc(O)cc4)CC3)C2=O)cc1` (centres unmarked) [Example 38, 4-(4-Hydroxyphenyl)-1′-(4-methylbenzyl)-[1,3′-bipiperidin]-2′-one], for which the pKi (read-out: NR2B Binding Ki) was 6.82.

On to `O=C1C(N2CCC(c3ccc(O)cc3)CC2)CCN1Cc1ccccc1` (centres unmarked) [Example 12, 1-Benzyl-3-(4-(4-hydroxyphenyl)piperidin-1-yl)pyrrolidin-2-one], for which, for the setting “read-out: NR2B Binding Ki”, the pKi is 8.40.

Turning to `O=C1C(N2CCC(c3ccc(O)cc3)C(F)(F)C2)CCN1Cc1ccc(F)c(Cl)c1` (centres unmarked) [Example 111, 1-(3-Chloro-4-fluorobenzyl)-3-(3,3-difluoro-4-(4-hydroxyphenyl)piperidin-1-yl)pyrrolidin-2-one], for the setting “read-out: NR2B Binding Ki”, the pKi was 6.23.

In the case of `O=C1C(N2CCC(c3ccc(O)cc3)CC2)CCN1Cc1ccc(F)c(F)c1` (racemic) [Example 5, 1-(3,4-Difluorobenzyl)-3-(4-(4-hydroxyphenyl)piperidin-1-yl)pyrrolidin-2-one], the pKi (read-out: NR2B Binding Ki) was 8.36.

`O=C1[C@H](N2CCC(c3ccc(O)cc3)CC2)CCN1Cc1ccc(F)cc1` [Example 2b, (R)-1-(4-Fluorobenzyl)-3-(4-(4-hydroxyphenyl)piperidin-1-yl)pyrrolidin-2-one]: the pKi (read-out: NR2B Binding Ki) is 8.85.

As for `O=C1C(N2CCC(c3ccc(O)cc3)CC2)CCCN1Cc1ccccc1` (single isomer, unassigned) [Example 41a, 1′-Benzyl-4-(4-hydroxyphenyl)-[1,3′-bipiperidin]-2′-one], the pKi (read-out: NR2B Binding Ki) is 6.00.

With `C[C@@H](c1ccc(F)cc1)N1CCC(N2CCC(c3ccc(O)cc3)C(F)(F)C2)C1=O` (single isomer, unassigned) [Example 56, P-4], the pKi (read-out: NR2B Binding Ki) was 6.18.

For `O=C1C(N2CCC(c3ccc(O)cc3)C(F)(F)C2)CCN1Cc1ccc(C(F)(F)F)cc1` (stereo in doubt) [Example 99, P-2, (3S)-3-(3,3-Difluoro-4-(4-hydroxyphenyl)piperidin-1-yl)-1-(4-(trifluoromethyl)benzyl)-pyrrolidin-2-one], under “read-out: NR2B Binding Ki”, the pKi is 7.66.

On to `O=C1[C@@H](N2CCC(c3ccc(O)cc3)C(F)(F)C2)CCN1Cc1ccc(Cl)c(F)c1` (stereo partly drawn) [Example 96, P-1, (3S)-1-(4-Chloro-3-fluorobenzyl)-3-(3,3-difluoro-4-(4-hydroxyphenyl)piperidin-1-yl)pyrrolidin-2-one], for which the pKi (read-out: NR2B Binding Ki) was 6.31.

For `Cc1ccc(N2CC[C@@H](N3CC[C@H](c4ccc(O)cc4)[C@@H](F)C3)C2=O)cc1F` [Example 49, P-2, (R)-3-((3R,4R)-3-fluoro-4-(4-hydroxyphenyl)piperidin-1-yl)-1-(3-fluoro-4-methylphenyl)pyrrolidin-2-one], the pKi (read-out: NR2B Binding Ki) is 7.14.

`C[C@@H](c1ccccc1)N1CC[C@@H](N2CCC(c3ccc(O)cc3)CC2)C1=O` [Example 33b, (R)-3-(4-(4-Hydroxyphenyl)piperidin-1-yl)-1-((S)-1-phenylethyl)pyrrolidin-2-one]: the pKi (read-out: NR2B Binding Ki) was 7.36.

As to `Cc1ccccc1CN1CCC(N2CCC(c3ccc(O)cc3)C(F)(F)C2)C1=O` (centres unmarked) [Example 92, 3-(3,3-Difluoro-4-(4-hydroxyphenyl)piperidin-1-yl)-1-(2-methylbenzyl)pyrrolidin-2-one], the pKi (read-out: NR2B Binding Ki) is 7.23.

(Values after US9221796B2, “Selective NR2B antagonists” (BRISTOL-MYERS SQUIBB COMPANY, priority 2014, dated 2015).)
